Common to all, as to test: DTP human tumour cell line panel, 48 h
Assay [1] concerns HCC-2998 colon.
Assay [2] deals with HT29 colon.
For assay [3], the system named is MALME-3M melanoma.
Assay [4] has as its system MDA-MB-231 breast.
For assay [5], the system named is OVCAR-4 ovarian.
Assay [6] deals with SK-MEL-5 melanoma.
The test system of assay [7] is NCI-H226 lung.
In assay [8] the test system is NCI-H23 lung.
Assay [9] relates to OVCAR-5 ovarian.
The test system of assay [10] is SK-MEL-2 melanoma.

This note sets out measurements from PubChem BioAssay (NCI).

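In this assay, cells in 96-well plates receive the compound at five concentrations for 48 hours. Endpoints are linearly interpolated between the surrounding concentrations. GI50 = concentration required for 50% inhibition of growth. The concentration for full growth arrest is given as TGI.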

Turning to `CCOC(=O)C1c2[nH]c3ccccc3c2CCN1C(=O)c1ccco1` (configuration not stated), the TGI in assay [1], in [2], in assay [3], in assay [4], in assay [5] and in assay [6] was over 10 µM in each case.
Regarding `COc1ccc(Nc2c3c4c(cccc4[nH]c2=O)C(=O)c2ccccc2-3)cc1`, the concentration for 50% growth inhibition (GI50) in assay [1] was 0.0221 µM; in [2] it was under 0.01 µM; in assay [3], 0.0663 µM; in assay [4], 0.0451 µM; in [7], 1.2 µM; in assay [8], under 0.0185 µM. The GI50 in [5] was 0.971 µM; in assay [9], 0.0479 µM; in [10], 0.048 µM; in [6], under 0.0172 µM. The TGI in assay [1] was 0.0482 µM; in assay [3] it was 48.3 µM; in assay [7], over 100 µM; in [8], over 38.9 µM; in [5], over 100 µM; in [9], over 90.1 µM. The concentration for total growth inhibition (TGI) in assay [10] was over 100 µM; in [6], 0.0451 µM.
In the case of `COc1ccc(-c2cc(-c3ccc(O)cc3)nc3nc(=S)[nH]c(N)c23)cc1`, the GI50 is 16.2 µM in assay [1]; 30.1 µM in assay [2]; 17.6 µM in assay [3]; 16.1 µM in [4]; 15.7 µM in assay [7]; 25 µM in assay [8]. Also, the GI50 in assay [5] was 25.3 µM; in assay [9] it was 32 µM; in [10], 18.4 µM; in assay [6], 16.1 µM. The TGI in [1] was 31.9 µM; in assay [2], over 100 µM; in assay [3], 38.7 µM; in assay [4] it was 57.8 µM; in assay [7], 36.9 µM; in [8], 50.1 µM. For the same compound, the TGI in assay [5] is over 100 µM; in assay [9] it was 74.3 µM; in assay [10] it was 41.2 µM; in [6], 31 µM.
With `C[As](C)Sc1ccnc(S[As](C)C)n1`, the GI50 in assay [1] was 3.02 µM; in assay [2], 3.98 µM; in assay [3] it was 1.66 µM; in [4], 2.62 µM; in assay [7], 31.2 µM; in [8], 6.79 µM. Also, the GI50 in assay [5] was 3.44 µM; in [9], 19.6 µM; in [6] it was 2.3 µM. For the same compound, the total growth inhibition concentration (TGI) in [1] was 10.5 µM; in assay [2] it was over 39.3 µM; in assay [3], 11.3 µM; in assay [4], 15.8 µM; in [7] it was over 100 µM; in [8] it was over 32 µM. For the same compound, the TGI is 36.3 µM in assay [5], over 48.4 µM in [9] and 10.7 µM in [6].
In the case of `CC(C)c1ccc2c(N=Nc3ccc(S(N)(=O)=O)cc3)c(O)[nH]c2c1`, the GI50 in [1] was over 21.1 µM; in assay [2] it was over 25 µM; in assay [3], 12.4 µM; in assay [4], 9.17 µM; in assay [7], 6.62 µM; in assay [8], 11.1 µM. In addition, the GI50 in assay [5] was over 25 µM; in assay [9], over 25 µM; in assay [10] it was over 13.1 µM; in assay [6] it was 9.86 µM. Further, the total growth inhibition concentration (TGI) in assay [1] is over 25 µM; in [2], over 25 µM; in assay [3] it was over 25 µM; in assay [4], over 25 µM; in assay [7], over 20.6 µM; in [8], over 25 µM. Besides, the concentration for total growth inhibition (TGI) in assay [5] was over 25 µM; in assay [9], over 25 µM; in assay [10], over 21.6 µM; in [6], over 25 µM.
As to `Nc1ccccc1/C=N\Nc1ccccc1`, the GI50 is 3.16 µM in assay [1]; over 100 µM in [2]; over 100 µM in [3]; 8.23 µM in [4]; over 100 µM in [7]; over 100 µM in assay [8]. Further, the GI50 in assay [5] is 3.91 µM; in [9], over 100 µM; in assay [10], 65.4 µM; in assay [6], 2.69 µM. Moreover, the concentration for total growth inhibition (TGI) in assay [1], in [2], in [3], in [4], in [7] and in assay [8] was over 100 µM in each case. Further, the TGI was over 100 µM in assay [5], over 100 µM in assay [9], over 100 µM in assay [10] and 7.98 µM in [6].
Regarding `C(=N/Nc1ncnc2nc[nH]c12)/c1ccccn1`, the GI50 in assay [1] was 0.422 µM; in assay [2], 4.07 µM; in assay [3] it was 0.268 µM; in assay [4], 0.609 µM; in assay [7] it was 1.57 µM; in assay [8], 2.91 µM. For the same compound, the GI50 in assay [5] is 0.3 µM; in [9], 1.02 µM; in assay [10] it was 1.34 µM; in assay [6], 1.28 µM. Further, the TGI is over 36.8 µM in assay [1]; over 100 µM in assay [2]; 5.62 µM in assay [3]; over 100 µM in assay [4]; 53.1 µM in assay [7]; over 100 µM in assay [8]. For the same compound, the total growth inhibition concentration (TGI) in [5] was over 100 µM; in assay [9], over 100 µM; in assay [10] it was over 100 µM; in [6], 4.61 µM.
`C#CC[C@@H]1C[C@]2(C)[C@H]3CC[C@@H]4[C@H]5[C@H](C(=C)C)CC[C@]5(C(=O)O)CC[C@@]4(C)[C@]3(C)CC[C@H]2C(C)(C)[C@H]1O`: the GI50 in assay [1] was 4.44 µM; in assay [2], 1.93 µM; in [3], 2.53 µM; in [4], 2.32 µM; in [7] it was 2.05 µM; in [8], 2.38 µM. Also, the GI50 in assay [5] was 1.93 µM; in [9] it was 3.07 µM; in assay [10], 2.4 µM; in assay [6], 2.27 µM. The TGI amounted to 38.5 µM in [1]; 3.69 µM in assay [2]; 5.83 µM in [3]; 6.11 µM in [4]; 6.56 µM in assay [7]; 6.95 µM in [8]. The concentration for total growth inhibition (TGI) was determined as 3.83 µM in assay [5], 11.6 µM in assay [9], 6.78 µM in assay [10] and 5.58 µM in assay [6].

A word on the TGI: it is the concentration giving total growth inhibition. Read a high TGI as lower sensitivity of the cells. The term GI50 denotes the concentration giving 50% growth inhibition.
